# Test system: panel of cancer cell lines
# Test: Cell viability (CellTiter-Glo) dose-response across cancer cell line panel; on AMAX: reference of the scale not given here;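 on EC50: after 72 h compound incubation with CellTiter-Glo ATP readout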
# Format: cell-based, human
# Conditions: for EC50: Homo sapiens
# Outline: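 Dose–response viability screen of a CSN5 inhibitor in over 500 cancer lines. Compound exposure lasted 72 h at 37 °C and 5% CO2, starting 4 h post-seeding. ATP luminescence (CellTiter-Glo) was read, and EC50 was obtained by nonlinear regression of percent inhibition.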
smiles,measurement,setting,value
NS(=O)(=O)OC[C@@H]1C[C@@H](n2ccc3c(N[C@H]4CCc5ccccc54)ncnc32)C[C@@H]1O [MLN4924],AMAX,A4/Fuk,-96.9287
same,AMAX,A101D,-92.8172
same,AMAX,A549,-65.6237
same,AMAX,A-704,-78.0973
same,AMAX,AM-38,-93.2889
same,AMAX,AU565,-66.5254
same,AMAX,AsPC-1,-50.1525
same,AMAX,BFTC-909,-84.6841
same,AMAX,BHY,-77.3535
same,AMAX,BICR 6,-87.6265
same,AMAX,BICR 16,-96.2639
same,AMAX,C32,-75.1217
same,AMAX,COLO 201,-80.4634
same,AMAX,Caki-1,-69.6053
same,AMAX,FaDu,-85.8426
same,AMAX,GP2d,-76.2986
same,AMAX,HARA,-86.2104
same,AMAX,HCC1143,-80.6145
same,AMAX,HCC-15,-95.7573
same,AMAX,HD-MY-Z,-88.7975
same,AMAX,HEC-151,-95.1252
same,AMAX,HEL,-97.9201
same,AMAX,HLC-1,-88.3206
same,AMAX,HLF,-88.8149
same,AMAX,HSC-4,-89.1597
same,AMAX,Hep3B,-41.8233
same,EC50,59M,631 nM
same,EC50,92.1,213 nM
same,EC50,639-V,191 nM
same,EC50,697,373 nM
same,EC50,769-P,199 nM
same,EC50,"786-0, 786-O",373 nM
same,EC50,"1321-N1, 1321N1",304 nM
same,EC50,8505C,271 nM
same,EC50,A4/Fuk,340 nM
same,EC50,A101D,403 nM
same,EC50,"A 172, A172",180 nM
same,EC50,"A204, A-204",267 nM
same,EC50,"A498, A-498",245 nM
same,EC50,"A549, A549",3600 nM
same,EC50,"A673, A-673",88.1 nM
same,EC50,"A704, A-704",622 nM
same,EC50,"A2058, A2058",316 nM
same,EC50,"A2780, A2780",330 nM
same,EC50,"A-375, A-375",281 nM
same,EC50,"ACC-MESO-1, ACC-MESO-1",1560 nM
same,EC50,"AM-38, AM-38",297 nM
same,EC50,AML-193,901 nM
same,EC50,"AN3-CA, AN3 CA",309 nM
same,EC50,"AU565, AU565",505 nM
same,EC50,BC-3C,1970 nM
same,EC50,BEN,1100 nM
same,EC50,"BFTC-909, BFTC-909",650 nM
same,EC50,BHY,1870 nM
same,EC50,BICR 6,181 nM
same,EC50,BICR 16,220 nM
same,EC50,BICR 18,11500 nM
same,EC50,BICR 31,156 nM
same,EC50,"BT-16, BT-16",98 nM
same,EC50,"BT-474, BT-474",871 nM
same,EC50,"BT-549, BT-549",382 nM
same,EC50,"BXPC-3, BxPC-3",530 nM
same,EC50,C3A,> 30000 nM
same,EC50,"C32, C32",1140 nM
same,EC50,"CAKI-1, Caki-1",327 nM
same,EC50,"CAKI-2, Caki-2",2360 nM
same,EC50,CAL-12T,1210 nM
same,EC50,"CAL-27, CAL 27",161 nM
same,EC50,CAL-29,283 nM
same,EC50,"CAL-54, CAL-54",772 nM
same,EC50,"CAL-85-1, CAL-85-1",144 nM
same,EC50,"CAL-120, CAL-120",154 nM
same,EC50,"CAL-148, CAL-148",> 30000 nM
same,EC50,"CAMA-1, CAMA-1",94.3 nM
same,EC50,"CAPAN-1, Capan-1",301 nM
same,EC50,CAS-1,14000 nM
same,EC50,"CCRF-HSB-2, CCRF-HSB-2",296 nM
same,EC50,"CEM/C1, CEMC1",257 nM
same,EC50,"CFPAC-1, CFPAC-1",703 nM
same,EC50,CL-34,89.6 nM
same,EC50,CMK,138 nM
same,EC50,"CMK-86, CMK-86",230 nM
same,EC50,"COLO 201, COLO 201",268 nM
same,EC50,"COLO 205, COLO 205",268 nM
same,EC50,"COLO 320, COLO-320",883 nM
same,EC50,"COLO 699, COLO-699",890 nM
same,EC50,"COLO 704, COLO-704",384 nM
same,EC50,"COLO-678, COLO-678",4890 nM
same,EC50,"COLO-679, COLO-679",133 nM
same,EC50,"COLO-741, COLO 741",130 nM
same,EC50,"COLO-829, COLO 829",319 nM
same,EC50,"COR-L23, COR-L23",1660 nM
same,EC50,"COR-L47, COR-L47",49.6 nM
same,EC50,"COR-L105, COR-L105",469 nM
same,EC50,"COV362, COV362",175 nM
same,EC50,COV644,23600 nM
same,EC50,"CW-2, CW-2",6310 nM
same,EC50,"Calu-1, Calu-1",2340 nM
same,EC50,"Calu-6, Calu-6",294 nM
same,EC50,"ChaGo-K-1, ChaGo-K-1",778 nM
same,EC50,"Ci-1, CI-1",28.2 nM
same,EC50,DAN-G,4140 nM
same,EC50,DB,732 nM
same,EC50,"DLD-1, DLD-1",641 nM
same,EC50,"DMS-53, DMS 53",22800 nM
same,EC50,"DMS-153, DMS 153",42.9 nM
same,EC50,"DMS-273, DMS 273",958 nM
same,EC50,"DND41, DND-41",513 nM
same,EC50,"DU-4475, DU4475",99.4 nM
same,EC50,Daoy,240 nM
same,EC50,"Detroit 562, Detroit 562",478 nM
same,EC50,"EBC-1, EBC-1",341 nM
same,EC50,"EFM-19, EFM-19",1390 nM
same,EC50,"EOL1, EOL-1",65.3 nM
same,EC50,FaDu,231 nM
same,EC50,"G-401, G-401",1550 nM
same,EC50,"G-402, G-402",811 nM
same,EC50,GAMG,373 nM
same,EC50,"GB-1, GB-1",479 nM
same,EC50,"GDM-1, GDM-1",188 nM
same,EC50,"GI-1, GI-1",207 nM
same,EC50,GP2d,759 nM
same,EC50,"Granta-519, GRANTA-519",117 nM
same,EC50,H4,229 nM
same,EC50,HARA,640 nM
same,EC50,"HCC15, HCC-15",414 nM
same,EC50,"HCC44, HCC-44",167 nM
same,EC50,"HCC70, HCC70",390 nM
same,EC50,"HCC78, HCC-78",183 nM
same,EC50,"HCC95, HCC-95",105 nM
same,EC50,"HCC827, HCC827",7720 nM
same,EC50,"HCC1143, HCC1143",1670 nM
same,EC50,"HCC1187, HCC1187",348 nM
same,EC50,"HCC1500, HCC1500",6580 nM
same,EC50,"HCC1588, HCC-1588",1370 nM
same,EC50,"HCC1806, HCC1806",70.1 nM
same,EC50,"HCC1954, HCC1954",417 nM
same,EC50,"HCC4006, HCC4006",1530 nM
same,EC50,HCC-56,2460 nM
same,EC50,HCC-1359,375 nM
same,EC50,HCC-1833,2350 nM
same,EC50,"HCT-15, HCT-15",934 nM
same,EC50,HD-MY-Z,124 nM
same,EC50,HEC-50B,961 nM
same,EC50,HEC-151,225 nM
